Reference: ChEMBL document CHEMBL2176972, “Potential use of selective and nonselective Pim kinase inhibitors for cancer therapy” (J Med Chem, 2012)

Columns and labels:
[1] = target: Serine/threonine-protein kinase pim-1 (Homo sapiens, UniProt P11309); test: Competitive inhibition of PIM1 using KKRNRTLTV as substrate after 5 mins by scintillation counter in presence of [gamma-32P]ATP
[2] = target: Casein kinase II subunit alpha (Homo sapiens, UniProt P68400); test: Competitive inhibition of CK2alpha using RRREDEESDDEE as substrate after 5 mins by scintillation counter in presence of [gamma-32P]ATP
[3] = target: Serine/threonine-protein kinase pim-2 (Homo sapiens, UniProt Q9P1W9); test: Competitive inhibition of PIM2 in presence of ATP
[4] = target: T1, Serine/threonine-protein kinase haspin (Homo sapiens, UniProt Q8TF76); test: Inhibition of haspin
T1 sequence (Q8TF76 whole entry): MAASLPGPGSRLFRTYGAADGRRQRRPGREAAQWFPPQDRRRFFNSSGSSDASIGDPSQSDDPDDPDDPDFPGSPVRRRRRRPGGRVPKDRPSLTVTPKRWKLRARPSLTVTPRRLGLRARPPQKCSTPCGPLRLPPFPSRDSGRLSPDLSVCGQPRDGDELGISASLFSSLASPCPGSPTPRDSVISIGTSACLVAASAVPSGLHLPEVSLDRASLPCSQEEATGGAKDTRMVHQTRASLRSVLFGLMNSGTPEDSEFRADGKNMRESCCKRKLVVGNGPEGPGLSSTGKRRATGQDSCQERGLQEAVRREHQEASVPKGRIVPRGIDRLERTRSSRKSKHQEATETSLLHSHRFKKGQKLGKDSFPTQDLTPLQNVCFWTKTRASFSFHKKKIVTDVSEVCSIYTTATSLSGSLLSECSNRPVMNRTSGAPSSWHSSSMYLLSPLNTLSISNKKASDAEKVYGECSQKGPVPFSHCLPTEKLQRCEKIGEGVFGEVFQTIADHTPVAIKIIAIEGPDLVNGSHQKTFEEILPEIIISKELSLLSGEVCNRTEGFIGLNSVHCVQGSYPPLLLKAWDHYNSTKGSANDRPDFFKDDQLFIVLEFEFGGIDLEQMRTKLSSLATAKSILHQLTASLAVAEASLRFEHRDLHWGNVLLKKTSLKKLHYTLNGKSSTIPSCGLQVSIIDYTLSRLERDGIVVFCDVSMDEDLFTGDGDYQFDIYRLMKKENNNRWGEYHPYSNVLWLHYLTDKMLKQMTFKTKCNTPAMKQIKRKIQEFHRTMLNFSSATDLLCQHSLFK

O=C(O)c1cc2c(ccc3cc4c(ccc5oc(C(=O)O)cc54)cc32)o1
IC50 [1]: 0.02 µM
IC50 [2]: 0.063 µM

O=C1NC(=O)/C(=C/c2cccc(C(F)(F)F)c2)S1
Ki [3]: 0.1 µM

CN1CCC(CNc2ccc3ncc(-c4cccc(OC(F)(F)F)c4)n3n2)CC1 [SGI-1776]
IC50 [4]: 0.034 µM
